According to US20240132503A1, “SALT FORM AND CRYSTAL FORM OF PYRAZOLE SUBSTITUTED IMIDAZO[1,2- A]QUINOXALINE DERIVATIVE” (OCUMENSION THERAPEUTICS (SUZHOU) CO., LTD, priority 2021, published 2024):
Where two headings read alike, the source gives them in different places.

Key:
[1] = Solid stability test of crystal form A (influencing factors and accelerated conditions; HPLC purity and XRPD); assay type: physicochemical
Protocol: All the stability samples were subjected to XRPD detection to detect changes in crystal forms.
About 10 mg of the crystal form was accurately weighed, put in a dry and clean glass bottle, spread into a thin layer, covered with aluminum foil with small pierced holes, and put under conditions of the influencing factor test and accelerated conditions. A sample under sunlight conditions (1200000 Lux visible light, and 200 W ultraviolet light) was put in a transparent glass bottle and fully exposed, and a sample used for XRPD detection was put separately.
After the sample was taken out by a time point, the glass bottle was covered with a lid, sealed with parafilm, and stored in a refrigerator at −20° C. During sample preparation, the sample was taken out of the refrigerator and recovered to room temperature, 10 mL of 80% ACN was added, and the sample was dissolved by ultrasonication for 2 minutes to obtain a solution at a concentration of about 1 mg/mL. A liquid phase was used for sample analysis, and the test result was compared with an initial test result on Day 0.
Preparation of a standard solution on Day 0: About 10 mg of the crystal form was weighed, put into a 10 mL volumetric flask, dissolved in 80% acetonitrile and diluted to the scale.
In addition, all the stability samples were subjected to the HPLC tests.

[2] = target: KDR (VEGFR-2) protein kinase (Homo sapiens (Human), UniProt P35968); assay: In vitro evaluation of inhibitory activity against KDR (VEGFR-2) protein kinase (ADP-Glo kinase assay); assay type: biochemical
KDR (VEGFR-2) protein kinase, sequence (P35968 20-1356): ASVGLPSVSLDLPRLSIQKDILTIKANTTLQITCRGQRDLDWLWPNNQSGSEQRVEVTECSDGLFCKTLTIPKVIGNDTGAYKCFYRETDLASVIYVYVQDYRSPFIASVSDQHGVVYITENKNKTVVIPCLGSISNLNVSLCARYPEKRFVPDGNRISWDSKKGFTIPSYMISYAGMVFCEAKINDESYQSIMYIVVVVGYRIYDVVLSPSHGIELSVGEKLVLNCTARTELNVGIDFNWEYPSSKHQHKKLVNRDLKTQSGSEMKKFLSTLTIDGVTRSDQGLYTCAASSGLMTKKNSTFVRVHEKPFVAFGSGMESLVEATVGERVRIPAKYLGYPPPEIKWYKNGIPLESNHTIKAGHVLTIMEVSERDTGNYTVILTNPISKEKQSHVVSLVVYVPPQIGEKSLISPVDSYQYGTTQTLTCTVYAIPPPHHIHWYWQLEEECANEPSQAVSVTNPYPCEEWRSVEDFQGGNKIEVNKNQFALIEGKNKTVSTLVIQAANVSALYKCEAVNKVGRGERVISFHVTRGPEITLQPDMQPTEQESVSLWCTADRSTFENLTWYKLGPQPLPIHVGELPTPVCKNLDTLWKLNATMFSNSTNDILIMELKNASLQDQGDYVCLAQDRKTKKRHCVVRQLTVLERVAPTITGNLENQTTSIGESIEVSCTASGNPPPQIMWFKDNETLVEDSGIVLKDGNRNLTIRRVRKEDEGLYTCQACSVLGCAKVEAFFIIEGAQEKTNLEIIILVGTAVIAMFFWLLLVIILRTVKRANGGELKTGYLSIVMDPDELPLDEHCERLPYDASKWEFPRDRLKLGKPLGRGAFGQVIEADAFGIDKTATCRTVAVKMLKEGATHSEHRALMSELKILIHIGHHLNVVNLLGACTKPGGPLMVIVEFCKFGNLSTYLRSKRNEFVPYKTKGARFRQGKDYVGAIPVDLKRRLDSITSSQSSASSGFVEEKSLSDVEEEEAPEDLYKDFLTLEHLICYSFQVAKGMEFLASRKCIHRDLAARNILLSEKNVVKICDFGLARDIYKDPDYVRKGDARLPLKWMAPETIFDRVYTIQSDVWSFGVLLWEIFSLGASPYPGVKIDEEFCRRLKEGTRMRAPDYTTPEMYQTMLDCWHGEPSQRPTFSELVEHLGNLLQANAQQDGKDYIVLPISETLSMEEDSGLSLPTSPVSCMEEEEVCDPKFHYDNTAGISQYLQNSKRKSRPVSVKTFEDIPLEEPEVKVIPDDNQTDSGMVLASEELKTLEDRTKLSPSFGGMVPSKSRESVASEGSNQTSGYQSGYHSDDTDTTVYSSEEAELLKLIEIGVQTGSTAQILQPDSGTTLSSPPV
Text: The KDR Kinase Kit was designed to use Kinase-Glo® MAX as a teat reagent to measure KDR kinase activity, and the IC50 value of the compound was used as an indicator for compound screening and analysis.
ADP-GLO™ Kinase Assay is an assay reaction for measuring adenosine diphosphate formed by the kinase by using a luminescent kinase; and ADP was converted into ATP, that is, conversion into a light signal via Ultra-Glo™ Luciferase. The light signal was positively correlated with the quantity of ADP and kinase activity. Such assay was very suitable for determining the activity of the compound, making the assay ideal for primary screening and a kinase selectivity assay. The ADP-Glo™ Kinase Assay can be used to monitor the activity of almost all ADP-producing enzymes (for example, a kinase or ATPase): • 1) Enzyme, substrate, ATP and inhibitors were diluted in kinase buffer; • 2) 384-well plate: 1 μL of inhibitor or (5% dimethyl sulfoxide solution) 2 μL of KDR enzyme, and 2 μL of substrate/ATP mixture; • 3) The 384-well plate was incubated at room temperature for 60 minutes; • 4) 5 μL of ADP-GLO™ reagent was added; • 5) The 384-well plate was incubated at room temperature for 40 minutes; • 6) 10 μL of kinase test reagent was added; • 7) The 384-well plate was incubated at room temperature for 30 minutes; • 8) Lumination (integration time: 0.5 to 1 second) was recorded. […]

[3] = Pharmacokinetics in plasma and eye tissues of male SD rats after single administration of eye drop; assay type: in vivo; conditions: for half-life / AUC(0-t) / Cmax / Tmax / AUC(0-inf) / MRT inf / Kp / MRT last: rat, topical or ocular; for AUC(0-inf) / MRT inf: extrapolated; for MRT inf: read-out: MRT0-inf; for Kp: read-out: AUC ratio (tissue AUC0-last/plasma AUC0-last); for MRT last: read-out: MRT0-last
Protocol: Test purpose: to study pharmacokinetics of the compound in eye tissues of male SD rats after single administration of eye drop
Test material: SD rats (male, 7 to 10 weeks of age, WTLH/SLAC)
Test operation: In this test, 18 male SD rats were provided by Beijing Vital River Laboratory Animal Technology Co., Ltd., and were randomly divided into 6 groups (3 rats/group), and each group of animals were given […] (5 mg/mL for both eyes, 30 μL/eye) of OT202 eye drops during single administration. All animals were not fasted before administration.

[4] = 40° C., relative humidity 75%, opened, 1 months
[5] = 40° C., relative humidity 75%, opened, 2 months
[6] = 40° C., relative humidity 75%, opened, 3 months
[7] = 60° C., relative humidity 75%, opened, 1 month
[8] = 60° C., relative humidity 75%, opened, 2 months
[9] = Control group kept in the dark, wrapped with tin foil
[10] = High humidity (relative humidity 92.5%, opened), 1 week
[11] = High humidity (relative humidity 92.5%, opened), 2 week
[12] = High temperature (60° C., opened), 1 week
[13] = High temperature (60° C., opened), 2 week
[14] = Visible light + ultraviolet light (ICH condition), visible 1200000 lux·hrs
[15] = SD (Sprague-Dawley), male SD rats, single eye drop 5 mg/mL, 30 μL/eye, both eyes, Aqueous humor of anterior chamber
[16] = SD (Sprague-Dawley), male SD rats, single eye drop 5 mg/mL, 30 μL/eye, both eyes, Bulbar conjunctiva
[17] = SD (Sprague-Dawley), male SD rats, single eye drop 5 mg/mL, 30 μL/eye, both eyes, Cornea
[18] = SD (Sprague-Dawley), male SD rats, single eye drop 5 mg/mL, 30 μL/eye, both eyes, Plasma
[19] = SD (Sprague-Dawley), male SD rats, single eye drop 5 mg/mL, 30 μL/eye, both eyes, Upper and lower eyelids
[20] = male SD rats, single eye drop 5 mg/mL, 30 μL/eye, both eyes, Aqueous humor of anterior chamber
[21] = male SD rats, single eye drop 5 mg/mL, 30 μL/eye, both eyes, Bulbar conjunctiva
[22] = male SD rats, single eye drop 5 mg/mL, 30 μL/eye, both eyes, Cornea
[23] = male SD rats, single eye drop 5 mg/mL, 30 μL/eye, both eyes, Plasma
[24] = male SD rats, single eye drop 5 mg/mL, 30 μL/eye, both eyes, Upper and lower eyelids

c1cn2c(n1)c(Nc1ccc(N3CCOCC3)cc1)nc1ccc(-c3cn[nH]c3)cc12
Crystal form (XRPD) [1, 4]: Crystal form A
Purity (area %) [1, 4]: 99.12 area %
Crystal form (XRPD) [1, 5]: Crystal form A
Purity (area %) [1, 5]: 99.06 area %
Crystal form (XRPD) [1, 6]: Crystal form A
Purity (area %) [1, 6]: 99.04 area %
Crystal form (XRPD) [1, 7]: Crystal form A
Purity (area %) [1, 7]: 99.15 area %
Crystal form (XRPD) [1, 8]: Crystal form A
Purity (area %) [1, 8]: 99.03 area %
Crystal form (XRPD) [1, 9]: Crystal form A
Purity (area %) [1, 9]: 99.12 area %
Crystal form (XRPD) ([1]; Day 0): Crystal form A
Purity (area %) ([1]; Day 0): 99.05 area %
Crystal form (XRPD) [1, 10]: Crystal form A
Purity (area %) [1, 10]: 99.03 area %
Crystal form (XRPD) [1, 11]: Crystal form A
Purity (area %) [1, 11]: 99.11 area %
Crystal form (XRPD) [1, 12]: Crystal form A
Purity (area %) [1, 12]: 98.99 area %
Crystal form (XRPD) [1, 13]: Crystal form A
Purity (area %) [1, 13]: 99.10 area %
Crystal form (XRPD) [1, 14]: Crystal form A
Purity (area %) [1, 14]: 99.12 area %
change in purity and crystal form ([1]; all stability conditions (high temperature, high humidity and sunlight)): no significant change
chemical stability ([1]; conclusion in words): good chemical stability
IC50 [2]: 28 nM
inhibitory activity against KDR (VEGFR-2) ([2]; conclusion in words): good inhibitory activity
half-life ([3]; SD (Sprague-Dawley), both eyes, male SD rats, single eye drop 5 mg/mL, 30 μL/eye, Aqueous humor of anterior chamber, sampling range 6-24 h): 738 min
half-life ([3]; SD (Sprague-Dawley), both eyes, male SD rats, single eye drop 5 mg/mL, 30 μL/eye, Bulbar conjunctiva, sampling range 1-24 h, linear regression coefficient of elimination phase less than 0.9): 307 min
half-life ([3]; SD (Sprague-Dawley), both eyes, male SD rats, single eye drop 5 mg/mL, 30 μL/eye, Cornea, sampling range 1-24 h): 290 min
half-life ([3]; SD (Sprague-Dawley), both eyes, male SD rats, single eye drop 5 mg/mL, 30 μL/eye, Plasma, sampling range 1-6 h, linear regression coefficient of elimination phase less than 0.9): 288 min
half-life ([3]; SD (Sprague-Dawley), both eyes, male SD rats, single eye drop 5 mg/mL, 30 μL/eye, Upper and lower eyelids, sampling range 1-24 h): 567 min
AUC(0-t) [3, 15]: 0.657 µM·h
Cmax [3, 15]: 560 nM
Tmax [3, 15]: 30 min
AUC(0-inf) [3, 15]: 0.711 µM·h
AUC(0-t) [3, 16]: 15.5 µM·h
Cmax [3, 16]: 4510 nM
Tmax [3, 16]: 30 min
AUC(0-inf) [3, 16]: 16.4 µM·h
AUC(0-t) [3, 17]: 2.53 µM·h
Cmax [3, 17]: 1590 nM
Tmax [3, 17]: 30 min
AUC(0-t) [3, 18]: 0.00532 µM·h
Cmax [3, 18]: 1.23 nM
Tmax [3, 18]: 60 min
AUC(0-inf) [3, 18]: 0.00956 µM·h
AUC(0-t) [3, 19]: 65.5 µM·h
Cmax [3, 19]: 10400 nM
Tmax [3, 19]: 30 min
pharmacokinetic features, including eye-to-blood ratio, tissue exposure ([3]; conclusion in words): good pharmacokinetic features
AUC0-inf/AUC0-last (%) [3, 20]: 108%
Tlast [3, 20]: 24.0 h
AUC0-inf/AUC0-last (%) [3, 21]: 106%
Tlast [3, 21]: 24.0 h
AUC0-inf/AUC0-last (%) [3, 22]: 102%
Tlast [3, 22]: 24.0 h
AUC0-inf/AUC0-last (%) [3, 23]: 180%
Tlast [3, 23]: 6.00 h
AUC0-inf/AUC0-last (%) [3, 24]: 122%
AUC ratio (tissue AUC0-last/plasma AUC0-last) [3, 24]: 12300
Tlast [3, 24]: 24.0 h
MRT inf [3, 20]: 6.27 h
Kp [3, 20]: 123
MRT last [3, 20]: 3.35 h
MRT inf [3, 21]: 6.73 h
Kp [3, 21]: 2910
MRT last [3, 21]: 5.28 h
AUC(0-inf) [3, 22]: 2.59 µM·h
MRT inf [3, 22]: 5.74 h
Kp [3, 22]: 476
MRT last [3, 22]: 5.05 h
MRT inf [3, 23]: 7.39 h
MRT last [3, 23]: 2.98 h
AUC(0-inf) [3, 24]: 80 µM·h
MRT inf [3, 24]: 13.7 h
MRT last [3, 24]: 8.4 h
